The record followed here is patent US10065990B2, “Cyclic peptide compound, and preparation method, pharmaceutical composition and use thereof” (HANGZHOU GUANYU BIO-MEDICAL CO., LTD, priority 2013, dated 2018).

Where two headings read alike, the source gives them in different places.

In test [1] the test system is U937 (human leukemia cells). Briefly: MTT cancer cell growth inhibition. The test is classed as cell-based. The following applies: Homo sapiens, U-937, 72 h, MTT, 72 hours incubation, read-out: GI50 U93. The essentials: (§1)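 Three-day compound exposure (final 10^−5–10^−10 M, three replicate wells) of cells seeded at 1500 per well precedes a 4 h MTT incubation at 37° C. Viability is taken from 570 nm absorbance after DMSO solubilisation, and GI50 calculated from it.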

The test system of test [2] is BGC-823 (human gastric cancer cells). The test is described as follows: MTT cancer cell growth inhibition. It is filed as cell-based. As to conditions: Homo sapiens, BGC-823, 72 h, MTT, 72 hours incubation, read-out: GI50 BG. The essentials: as §1
The subject of test [3] is PANC-1 (Pac-1, human pancreatic cancer cells). The test is described as follows: MTT cancer cell growth inhibition. It is filed as cell-based. The following applies: Homo sapiens, PANC-1, 72 h, MTT, 72 hours incubation, read-out: GI50 PAN. The essentials:
as §1

Test [4] deals with A549 (human lung cancer cells). The test is described as follows: MTT cancer cell growth inhibition. As to conditions: Homo sapiens, A549, 72 h, MTT, 72 hours incubation, read-out: GI50 A54. The test is classed as cell-based. The essentials:
as §1

For test [5], the system named is KBM-5 (human chronic myelogenous leukemia). The test is described as follows: MTT cancer cell growth inhibition. The test is classed as cell-based. The following applies: Homo sapiens, KBM5, 72 h, MTT, 72 hours incubation, KBM-5 cells; read-out: GI50 KBM-5. The essentials:
as §1

In test [6] the test system is DU145 (human prostate cancer cells). Briefly: MTT cancer cell growth inhibition. The test is classed as cell-based. The following applies: Homo sapiens, DU-145, 72 h, MTT, 72 hours incubation, read-out: GI50 Du1. The essentials:
as §1

In test [7] the test system is MDA-MB-231 (breast cancer cells). Briefly: MTT cancer cell growth inhibition. The following applies: Homo sapiens, MDA-MB-231, 72 h, read-out: GI50 MDA-MB-231, MTT, 72 hours incubation, MDA-MB-231 cells. The test is classed as cell-based. The essentials:
as §1

In test [8] the test system is HCC827 (human non-small cell lung cancer cells). The test is described as follows: MTT cancer cell growth inhibition. The test is classed as cell-based. As to conditions: Homo sapiens, HCC827, 72 h, MTT, 72 hours incubation, HCC827 cells; read-out: GI50 HCC827. An outline of the steps:
as §1

Test [9] concerns Huh-7 (human hepatoma cells). Briefly: MTT cancer cell growth inhibition. The test is classed as cell-based. The following applies: Homo sapiens, Huh-7, 72 h, MTT, 72 hours incubation, Huh-7 cells; read-out: GI50 Huh-7. An outline of the steps: as §1
Test [10] concerns SGC-7901 (human gastric cancer cells). Briefly: MTT cancer cell growth inhibition. As to conditions: Homo sapiens, SGC-7901, 72 h, MTT, 72 hours incubation, SGC-7901 cells; read-out: GI50 SGC-7901. The test is classed as cell-based. The essentials: as §1
The subject of test [11] is K562 (human leukemia cells). Briefly: MTT cancer cell growth inhibition. It is filed as cell-based. The following applies: Homo sapiens, K562, 72 h, MTT, 72 hours incubation, K562 cells; read-out: GI50 K562. An outline of the steps:
as §1

Test [12] has as its system HT1080 (human fibrosarcoma cells). Briefly: MTT cancer cell growth inhibition. The test is classed as cell-based. As to conditions: Homo sapiens, HT-1080, 72 h, MTT, 72 hours incubation, read-out: GI50 HT1. The essentials:
as §1

Test [13] deals with N-87 (human gastric cancer cells). Briefly: MTT cancer cell growth inhibition. As to conditions: Homo sapiens, 72 h, MTT, 72 hours incubation, N-87 cells; read-out: GI50 N-87. It is filed as cell-based. The essentials: as §1
The subject of test [14] is MCF-7 (human breast cancer cells). Briefly: MTT cancer cell growth inhibition. The test is classed as cell-based. As to conditions: Homo sapiens, MCF7, 72 h, 72 hours incubation, read-out: GI50 MCF. The essentials: as §1
Test [15] relates to MOLT-4 (human acute lymphoblastic leukemia cells). Briefly: MTT cancer cell growth inhibition. As to conditions: Homo sapiens, MOLT-4, 72 h, MTT, 72 hours incubation, read-out: GI50 Mol. The test is classed as cell-based. The essentials:
as §1

For test [16], the system named is Hela (human cervical cancer cells). Briefly: MTT cancer cell growth inhibition. The following applies: Homo sapiens, HeLa, 72 h, MTT, 72 hours incubation, read-out: GI50 Hela. The test is classed as cell-based. The essentials: as §1
Test [17] has as its system KBM5-T315I (human chronic myelogenous leukemia). Briefly: MTT cancer cell growth inhibition. The test is classed as cell-based. The following applies: Homo sapiens, 72 h, MTT, 72 hours incubation, KBM5-T315I cells; read-out: GI50 KBM5-T315I. The essentials:
as §1

The test system of test [18] is H1975 (non-small cell lung adenocarcinoma). The test is described as follows: MTT cancer cell growth inhibition. It is filed as cell-based. As to conditions: Homo sapiens, NCI-H1975, 72 h, MTT, 72 hours incubation, H1975 cells; read-out: GI50 H1975. The essentials: as §1
Test [19] concerns Bel-7402 (human hepatoma cells). Briefly: MTT cancer cell growth inhibition. The test is classed as cell-based. The following applies: Homo sapiens, Bel-7402, 72 h, MTT, 72 hours incubation, Bel-7402 cells; read-out: GI50 Bel-7402. The essentials:
as §1

Test [20] deals with lncap (prostate cancer cells). Briefly: MTT cancer cell growth inhibition. It is filed as cell-based. As to conditions: Homo sapiens, LNCaP, 72 h, MTT, 72 hours incubation, read-out: GI50 lnca. The essentials: as §1
Test [21] has as its target T1, HDAC7 (Homo sapiens, UniProt Q8WUI4).
T1 sequence (Q8WUI4 1-952): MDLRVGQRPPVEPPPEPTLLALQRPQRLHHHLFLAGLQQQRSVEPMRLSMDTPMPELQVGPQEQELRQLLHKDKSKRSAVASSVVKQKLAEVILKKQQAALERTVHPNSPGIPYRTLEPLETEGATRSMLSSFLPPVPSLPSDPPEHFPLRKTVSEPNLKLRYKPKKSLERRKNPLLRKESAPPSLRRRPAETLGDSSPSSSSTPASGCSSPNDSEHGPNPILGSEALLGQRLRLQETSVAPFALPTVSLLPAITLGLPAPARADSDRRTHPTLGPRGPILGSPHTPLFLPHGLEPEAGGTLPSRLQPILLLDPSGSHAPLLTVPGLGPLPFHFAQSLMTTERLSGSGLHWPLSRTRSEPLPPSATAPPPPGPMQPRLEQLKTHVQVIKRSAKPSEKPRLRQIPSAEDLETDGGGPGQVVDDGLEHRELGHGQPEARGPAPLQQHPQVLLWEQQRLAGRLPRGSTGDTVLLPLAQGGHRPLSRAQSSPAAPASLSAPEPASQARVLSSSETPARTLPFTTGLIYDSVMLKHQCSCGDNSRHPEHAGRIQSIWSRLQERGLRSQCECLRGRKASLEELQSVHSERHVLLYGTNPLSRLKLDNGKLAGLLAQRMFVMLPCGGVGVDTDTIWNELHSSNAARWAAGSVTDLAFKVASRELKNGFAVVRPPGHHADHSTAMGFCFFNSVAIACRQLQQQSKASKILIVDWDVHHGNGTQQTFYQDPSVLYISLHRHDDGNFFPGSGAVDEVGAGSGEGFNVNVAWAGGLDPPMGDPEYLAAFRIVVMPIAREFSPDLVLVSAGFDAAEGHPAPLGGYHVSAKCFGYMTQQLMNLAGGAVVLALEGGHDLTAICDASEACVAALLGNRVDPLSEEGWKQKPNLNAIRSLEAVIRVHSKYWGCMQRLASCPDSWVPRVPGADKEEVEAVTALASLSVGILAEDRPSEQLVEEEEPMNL
The test is described as follows: HDAC biochemical activity measurement (fluorescent substrate deacetylation).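 Further: fluorogenic deacetylation assay using acetyl-lysine substrate at 20 µM, enzyme and compound incubated 30 min at 37 °C, then developer added, fluorescence read at 360/460 nm.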 As to conditions: HDAC7; 37° C. 30 minutes.

What is called GI50 is the concentration that inhibits growth by half. Take `C=C1NC(=O)c2cccc(n2)CNC(=O)C[C@@H](/C=C/CCS)OC(=O)[C@H](C)NC1=O` [Compound 139]: the GI50 in [1] came out at 50 nM; in test [2], 60 nM; in test [3] it was 70 nM; in test [4], 50 nM; in test [5] it was 69 nM; in [6], 80 nM. For the same compound, the GI50 came to 67 nM in test [7]; 34 nM in [8]; 51 nM in test [9]; 57 nM in test [10]; 47 nM in test [11]; 70 nM in test [12]. Moreover, the GI50 in [13] came out at 25 nM; in [14] it was 10 nM; in test [15], 90 nM; in test [16], 70 nM; in [17], 21 nM; in test [18], 15 nM. Besides, the concentration for 50% growth inhibition (GI50) in [19] came out at 43 nM; in test [20] it was 190 nM. Also, the “IC50 HDAC7” value in test [21] was “no activity”.
Take `C/C=C1\NC(=O)c2ccc(SC)c(n2)CNC(=O)C[C@@H](/C=C/CCSC(C)=O)OC(=O)[C@H](Cc2ccc(O)cc2)NC1=O` [Compound 203]: the concentration for 50% growth inhibition (GI50) in test [1] (U937 cells) was found to be 20 nM; in test [2] (BGC-823 cells), 80 nM; in test [3] (PANC-1 cells), 30 nM; in test [4] (A549 cells) it was 30 nM; in test [5] it was 53 nM; in test [6] (DU145 cells), 40 nM. The GI50 stood at 73 nM in test [7]; 23 nM in test [8]; 22 nM in test [9]; 43 nM in test [10]; 35 nM in [11]; 60 nM in test [12] (HT1080 cells). Besides, the 50% growth inhibitory concentration (GI50) in [13] was 77 nM; in [14] (MCF-7 cells) it was 40 nM; in test [15] (MOLT-4 cells) it was 30 nM; in test [16] (Hela cells), 30 nM; in [17], 26 nM; in [18] it was 65 nM. The GI50 was 23 nM in test [19] and 30 nM in [20] (lncap cells). In addition, the “IC50 HDAC7” value in [21] is recorded as “no activity”.
For the compound `C/C=C1\NC(=O)c2cc(SC)cc(n2)CNC(=O)C[C@@H](/C=C/CCSC(=O)CCCCCCC)OC(=O)[C@H](C(C)C)NC1=O` [Compound 148], the GI50 in [1] (U937 cells) amounted to 20 nM; in test [2] (BGC-823 cells), 40 nM; in test [3] (PANC-1 cells) it was 40 nM; in test [4] (A549 cells), 20 nM; in test [5], 35 nM; in test [6] (DU145 cells) it was 50 nM. The 50% growth inhibitory concentration (GI50) came to 51 nM in [7]; 16 nM in test [8]; 64 nM in [9]; 51 nM in test [10]; 62 nM in [11]; 80 nM in [12] (HT1080 cells). For the same compound, the GI50 was found to be 47 nM in test [13]; 50 nM in [14] (MCF-7 cells); 80 nM in test [15] (MOLT-4 cells); 40 nM in [16] (Hela cells); 53 nM in test [17]; 39 nM in test [18]. The 50% growth inhibitory concentration (GI50) in test [19] turned out to be 53 nM; in [20] (lncap cells), 40 nM. In test [21], the “IC50 HDAC7” value is “no activity”.
As to `C/C=C1\NC(=O)c2nc(ccc2SC)CNC(=O)C[C@@H](/C=C/CCSC(C)=O)OC(=O)[C@H](Cc2ccc(O)cc2)NC1=O` [Compound 201], the GI50 in test [1] (U937 cells) came out at 40 nM; in test [2] (BGC-823 cells), 50 nM; in test [3] (PANC-1 cells), 60 nM; in test [4] (A549 cells), 30 nM; in test [5], 29 nM; in [6] (DU145 cells) it was 30 nM. Also, the GI50 in test [7] amounted to 38 nM; in test [8], 11 nM; in test [9], 90 nM; in test [10], 51 nM; in test [11] it was 35 nM; in [12] (HT1080 cells), 60 nM. Besides, the GI50 in [13] was 32 nM; in [14] (MCF-7 cells), 40 nM; in test [15] (MOLT-4 cells) it was 20 nM; in test [16] (Hela cells), 30 nM; in test [17], 35 nM; in test [18], 73 nM. The 50% growth inhibitory concentration (GI50) in test [19] stood at 69 nM; in [20] (lncap cells), 70 nM. For the same compound, the “IC50 HDAC7” value in test [21] is “no activity”.
